Consider 32 molecules from ChEMBL document CHEMBL3396994, “Novel 4-aryl-pyrido[1,2-c]pyrimidines with dual SSRI and 5-HT1A activity. Part 4” (Eur J Med Chem, 2015).

Usually Ki stands for the equilibrium dissociation constant of an inhibitor or competing ligand from its target. The term half-life denotes the time needed for the level to fall by half in the phase considered. A low value points to rapid decline.

Structures are written as SMILES.

The target of data set [1] is T1, 5-hydroxytryptamine receptor 1A (Rattus norvegicus, UniProt P19327).
T1 sequence (P19327 whole entry): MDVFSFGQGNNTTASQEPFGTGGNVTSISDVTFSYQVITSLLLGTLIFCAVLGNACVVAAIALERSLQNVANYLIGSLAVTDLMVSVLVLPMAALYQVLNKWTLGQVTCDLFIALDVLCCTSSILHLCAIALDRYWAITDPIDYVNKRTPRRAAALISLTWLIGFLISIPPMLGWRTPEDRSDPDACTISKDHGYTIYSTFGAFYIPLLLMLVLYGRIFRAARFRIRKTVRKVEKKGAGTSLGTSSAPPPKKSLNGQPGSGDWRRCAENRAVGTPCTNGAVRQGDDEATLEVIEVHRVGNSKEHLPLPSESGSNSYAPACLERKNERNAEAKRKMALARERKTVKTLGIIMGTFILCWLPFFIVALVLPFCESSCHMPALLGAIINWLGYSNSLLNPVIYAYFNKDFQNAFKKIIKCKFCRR
Put plainly: Displacement of [3H]8-OH-DPAT from rat brain hippocampus 5-HT1A receptor by radioligand binding assay. In general terms: In a radioligand displacement assay an active substance lowers the binding of a labelled ligand.

Data set [2] addresses Sodium-dependent serotonin transporter (Rattus norvegicus, UniProt P31652). Put plainly: Displacement of [3H]citalopram from rat brain cerebral cortex SERT by liquid scintillation counting analysis. The data set is classed as tissue-based.
Data set [3] in a line: Metabolic stability in human liver microsomes assessed as compound remaining at 10 uM after 60 mins by LC/MS analysis. The settings on record: read-out: Stability. The data set is classed as ADME.
A short description of data set [4]: Half life in human liver microsomes at 10 uM by LC/MS analysis. The data set is classed as ADME. (In general: Liver microsomes are vesicles of endoplasmic reticulum, rich in cytochrome P450 enzymes.)

Sodium-dependent serotonin transporter, sequence (P31652 whole entry): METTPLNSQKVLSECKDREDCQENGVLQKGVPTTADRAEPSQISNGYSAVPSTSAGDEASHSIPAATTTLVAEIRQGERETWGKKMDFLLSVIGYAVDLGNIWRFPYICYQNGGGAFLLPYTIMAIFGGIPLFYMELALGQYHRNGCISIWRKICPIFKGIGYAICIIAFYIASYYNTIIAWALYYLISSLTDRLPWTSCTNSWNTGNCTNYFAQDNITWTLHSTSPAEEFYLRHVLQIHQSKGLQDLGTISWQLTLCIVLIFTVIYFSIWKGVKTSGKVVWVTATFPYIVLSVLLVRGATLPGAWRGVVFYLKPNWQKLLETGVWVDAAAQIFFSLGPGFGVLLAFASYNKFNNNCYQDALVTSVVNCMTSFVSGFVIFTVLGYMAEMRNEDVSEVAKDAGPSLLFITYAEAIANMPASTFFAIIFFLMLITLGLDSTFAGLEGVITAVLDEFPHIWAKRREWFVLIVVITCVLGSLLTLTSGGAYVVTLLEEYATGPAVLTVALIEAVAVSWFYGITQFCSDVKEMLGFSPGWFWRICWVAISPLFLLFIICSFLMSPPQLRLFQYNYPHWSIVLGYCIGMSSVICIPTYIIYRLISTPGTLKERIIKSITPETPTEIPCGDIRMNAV

With `COc1ccc(-c2c(=O)n(CCCCN3CC=C(c4c[nH]c5ccc(Br)cc45)CC3)c(=O)n3ccccc23)cc1`, the Ki in data set [1] came to 23.1 nM; in data set [2], 326 nM.

As for `O=c1c(-c2ccccc2F)c2ccccn2c(=O)n1CCCCN1CCC(c2c[nH]c3ccc(F)cc23)CC1`, the inhibition constant (Ki) in data set [1] was 9.2 nM; in data set [2] it was 25.7 nM.

As for `O=c1c(-c2ccccc2)c2ccccn2c(=O)n1CCCCN1CC=C(c2c[nH]c3ccc(F)cc23)CC1`, the Ki in data set [1] is 118 nM; in data set [2] it was 27.1 nM. The remaining at 1 h, 10 µM in data set [3] turned out to be 63.4%. The molecule further showed a half-life at 10 µM in data set [4] of 1.37 h.

In the case of `O=c1c(-c2ccc(F)cc2)c2ccccn2c(=O)n1CCCCN1CC=C(c2c[nH]c3ccc(Cl)cc23)CC1`, the Ki in data set [1] was 106 nM; in data set [2] it was 329 nM.

On to `O=c1c(-c2ccccc2Cl)c2ccccn2c(=O)n1CCCCN1CCC(c2c[nH]c3ccc(F)cc23)CC1`, for which the inhibition constant (Ki) is 15.9 nM in data set [1] and 88.6 nM in data set [2].

Turning to `O=c1c(-c2ccc(Cl)cc2)c2ccccn2c(=O)n1CCCCN1CC=C(c2c[nH]c3ccc(F)cc23)CC1`, the results for the Ki in data set [1] and in data set [2] were 265 nM and 58.2 nM, respectively. The remaining at 1 h, 10 µM in data set [3] turned out to be 50.2%. The molecule also came in with a half-life at 10 µM in data set [4] of 1 h.

As for `Cc1ccc(-c2c(=O)n(CCCCN3CCC(c4c[nH]c5ccc(F)cc45)CC3)c(=O)n3ccccc23)cc1`, the figures for the inhibition constant (Ki) in data set [1] and in data set [2] were 38.5 nM and 27.4 nM, respectively.

Take `Cc1ccccc1-c1c(=O)n(CCCCN2CC=C(c3c[nH]c4ccc(Br)cc34)CC2)c(=O)n2ccccc12`: the values for the inhibitory constant (Ki) in data set [1] and in data set [2] were 71.5 nM and 879 nM, respectively.

`O=c1c(-c2ccccc2Cl)c2ccccn2c(=O)n1CCCCN1CC=C(c2c[nH]c3ccc(Cl)cc23)CC1`: the inhibitory constant (Ki) turned out to be 74.4 nM in data set [1] and 774 nM in data set [2].

Take `O=c1c(-c2ccccc2F)c2ccccn2c(=O)n1CCCCN1CC=C(c2c[nH]c3ccc(Br)cc23)CC1`: the Ki was found to be 32.5 nM in data set [1] and 836 nM in data set [2].

As to `COc1ccccc1-c1c(=O)n(CCCCN2CC=C(c3c[nH]c4ccc(F)cc34)CC2)c(=O)n2ccccc12`, the Ki worked out at 251 nM in data set [1] and 20.8 nM in data set [2]. The remaining at 1 h, 10 µM in data set [3] came out at 67.9%. For the same molecule, the half-life at 10 µM in data set [4] came out at 1.57 h.

For the molecule `O=c1c(-c2ccc(F)cc2)c2ccccn2c(=O)n1CCCCN1CCC(c2c[nH]c3ccc(F)cc23)CC1`, the Ki amounted to 12.8 nM in data set [1] and 19.4 nM in data set [2].

On to `O=c1c(-c2ccccc2)c2ccccn2c(=O)n1CCCCN1CCC(c2c[nH]c3ccc(F)cc23)CC1`, for which the results for the Ki in data set [1] and in data set [2] were 12.4 nM and 15.6 nM, respectively.

Take `O=c1c(-c2ccc(Cl)cc2)c2ccccn2c(=O)n1CCCCN1CC=C(c2c[nH]c3ccc(Br)cc23)CC1`: the inhibition constant Ki in data set [1] is 61.6 nM; in data set [2], 1000 nM.

Regarding `O=c1c(-c2ccccc2F)c2ccccn2c(=O)n1CCCCN1CC=C(c2c[nH]c3ccc(F)cc23)CC1`, the Ki in data set [1] was determined as 116 nM; in data set [2], 3.9 nM.

Regarding `Cc1ccccc1-c1c(=O)n(CCCCN2CC=C(c3c[nH]c4ccc(F)cc34)CC2)c(=O)n2ccccc12`, the inhibition constant Ki in data set [1] was found to be 295 nM; in data set [2] it was 58.8 nM. The remaining at 1 h, 10 µM in data set [3] turned out to be 60.5%. For the same molecule, the half-life at 10 µM in data set [4] turned out to be 1.26 h.

Consider `Cc1ccc(-c2c(=O)n(CCCCN3CC=C(c4c[nH]c5ccc(Cl)cc45)CC3)c(=O)n3ccccc23)cc1`, for which the figures for the Ki in data set [1] and in data set [2] were 267 nM and 408 nM, respectively. The remaining at 1 h, 10 µM in data set [3] came out at 64.3%. The half-life at 10 µM in data set [4] was 1.41 h.

`O=c1c(-c2ccc(F)cc2)c2ccccn2c(=O)n1CCCCN1CC=C(c2c[nH]c3ccc(F)cc23)CC1`: the values for the Ki in data set [1] and in data set [2] were 220 nM and 11.3 nM, respectively.

For the molecule `COc1ccccc1-c1c(=O)n(CCCCN2CCC(c3c[nH]c4ccc(F)cc34)CC2)c(=O)n2ccccc12`, the Ki in data set [1] amounted to 5.6 nM; in data set [2] it was 20.7 nM.

In the case of `COc1ccc(-c2c(=O)n(CCCCN3CC=C(c4c[nH]c5ccc(Cl)cc45)CC3)c(=O)n3ccccc23)cc1`, the Ki in data set [1] turned out to be 278 nM; in data set [2] it was 312 nM.

As to `O=c1c(-c2ccccc2)c2ccccn2c(=O)n1CCCCN1CC=C(c2c[nH]c3ccc(Cl)cc23)CC1`, the figures for the Ki in data set [1] and in data set [2] were 126 nM and 322 nM, respectively.

As for `O=c1c(-c2ccc(Cl)cc2)c2ccccn2c(=O)n1CCCCN1CCC(c2c[nH]c3ccc(F)cc23)CC1`, the Ki in data set [1] worked out at 84.4 nM; in data set [2], 25.5 nM.

As to `O=c1c(-c2ccccc2)c2ccccn2c(=O)n1CCCCN1CC=C(c2c[nH]c3ccc(Br)cc23)CC1`, the Ki in data set [1] came to 40.1 nM; in data set [2], 840 nM. Also, the remaining at 1 h, 10 µM in data set [3] turned out to be 63.2%. In data set [4], this molecule yielded a half-life at 10 µM of 1.37 h.

For the molecule `O=c1c(-c2ccccc2F)c2ccccn2c(=O)n1CCCCN1CC=C(c2c[nH]c3ccc(Cl)cc23)CC1`, the inhibition constant (Ki) was found to be 97.1 nM in data set [1] and 435 nM in data set [2].

On to `Cc1ccc(-c2c(=O)n(CCCCN3CC=C(c4c[nH]c5ccc(F)cc45)CC3)c(=O)n3ccccc23)cc1`, for which the Ki in data set [1] is 153 nM; in data set [2] it was 30.3 nM.

`O=c1c(-c2ccc(F)cc2)c2ccccn2c(=O)n1CCCCN1CC=C(c2c[nH]c3ccc(Br)cc23)CC1`: the values for the inhibition constant Ki in data set [1] and in data set [2] were 79.1 nM and 404 nM, respectively. Also, in data set [3], the remaining at 1 h, 10 µM stood at 51.4%. The molecule also returned a half-life at 10 µM in data set [4] of 1.03 h.

Take `Cc1ccccc1-c1c(=O)n(CCCCN2CC=C(c3c[nH]c4ccc(Cl)cc34)CC2)c(=O)n2ccccc12`: the Ki amounted to 212 nM in data set [1] and 740 nM in data set [2].

Consider `O=c1c(-c2ccccc2Cl)c2ccccn2c(=O)n1CCCCN1CC=C(c2c[nH]c3ccc(F)cc23)CC1`, for which the Ki in data set [1] came to 127 nM; in data set [2], 5.2 nM.

`COc1ccc(-c2c(=O)n(CCCCN3CC=C(c4c[nH]c5ccc(F)cc45)CC3)c(=O)n3ccccc23)cc1`: the Ki in data set [1] came to 81.7 nM; in data set [2], 15.6 nM.

Take `COc1ccccc1-c1c(=O)n(CCCCN2CC=C(c3c[nH]c4ccc(Cl)cc34)CC2)c(=O)n2ccccc12`: the Ki in data set [1] came out at 97.8 nM; in data set [2], 718 nM. Besides, the remaining at 1 h, 10 µM in data set [3] stood at 55.6%. For the same molecule, the half-life at 10 µM in data set [4] came out at 1.13 h.

Regarding `Cc1ccc(-c2c(=O)n(CCCCN3CC=C(c4c[nH]c5ccc(Br)cc45)CC3)c(=O)n3ccccc23)cc1`, the figures for the Ki in data set [1] and in data set [2] were 145 nM and 949 nM, respectively.

Take `COc1ccccc1-c1c(=O)n(CCCCN2CC=C(c3c[nH]c4ccc(Br)cc34)CC2)c(=O)n2ccccc12`: the inhibitory constant (Ki) was determined as 33.1 nM in data set [1] and 1200 nM in data set [2].
